Read-outs that look alike come from different tables or passages of the source.
Experiments:
[1] = cited from earlier work
[2] = cited from earlier work; remark: listed apart in the source
[3] = Clinical pharmacokinetics (literature data); settings: human, in vivo, oral
[4] = test system: CBD metabolism in human liver microsomes (CYP3A4 and CYP2C19); assay: in vitro
CYP1A2 = target: T1, CYP1A2 (Homo sapiens, UniProt P05177); settings: cited from earlier work
T1 sequence (P05177 1-516): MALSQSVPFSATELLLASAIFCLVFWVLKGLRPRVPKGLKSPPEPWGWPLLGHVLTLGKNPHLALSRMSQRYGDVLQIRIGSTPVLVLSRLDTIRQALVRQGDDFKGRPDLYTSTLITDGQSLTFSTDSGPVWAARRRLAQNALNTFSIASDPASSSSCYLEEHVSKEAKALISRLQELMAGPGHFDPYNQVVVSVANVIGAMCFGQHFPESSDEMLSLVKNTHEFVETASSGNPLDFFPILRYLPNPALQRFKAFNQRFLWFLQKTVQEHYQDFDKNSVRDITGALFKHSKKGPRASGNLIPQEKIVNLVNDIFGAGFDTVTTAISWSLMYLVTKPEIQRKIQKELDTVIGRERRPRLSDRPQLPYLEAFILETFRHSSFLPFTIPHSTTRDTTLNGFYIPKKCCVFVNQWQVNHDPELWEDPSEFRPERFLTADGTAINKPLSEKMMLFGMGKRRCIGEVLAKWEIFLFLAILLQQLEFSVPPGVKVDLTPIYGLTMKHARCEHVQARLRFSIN

CYP2C8 = target: T2, CYP2C8 (Homo sapiens, UniProt P10632); settings: cited from earlier work
T2 sequence (P10632 1-490): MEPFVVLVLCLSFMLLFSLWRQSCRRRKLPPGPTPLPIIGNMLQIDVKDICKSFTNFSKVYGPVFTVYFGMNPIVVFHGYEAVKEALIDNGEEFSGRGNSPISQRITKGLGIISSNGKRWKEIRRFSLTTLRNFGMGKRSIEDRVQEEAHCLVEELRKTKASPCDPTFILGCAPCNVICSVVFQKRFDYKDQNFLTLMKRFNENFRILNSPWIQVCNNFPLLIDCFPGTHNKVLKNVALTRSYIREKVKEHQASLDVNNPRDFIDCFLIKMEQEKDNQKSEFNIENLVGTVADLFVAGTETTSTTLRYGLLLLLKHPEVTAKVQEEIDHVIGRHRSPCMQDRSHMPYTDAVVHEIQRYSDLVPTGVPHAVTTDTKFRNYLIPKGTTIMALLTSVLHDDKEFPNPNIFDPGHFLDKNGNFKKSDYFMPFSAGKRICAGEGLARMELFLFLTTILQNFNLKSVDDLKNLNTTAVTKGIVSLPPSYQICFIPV

CYP2C19 [5] = target: T3, CYP2C19 (Homo sapiens, UniProt P33261); settings: cited from earlier work
CYP2D6 = CYP2D6 (Homo sapiens, UniProt P10635); assay: biochemical
Protocol: Incubation mixtures were prepared with the following:
(a) potassium phosphate buffer;
(b) 0.1 mg/mL microsomal protein;
(c) isoform-specific probe substrates;
(d) specific concentrations of the test compounds, blank solvent, or positive controls (isoform-specific inhibitors); and
(e) an NADPH-regenerating cofactor solution.
Upon completion of the incubation, the reactions were quenched with an acetonitrile solution containing an internal standard. The samples were processed and analyzed by LC-MS/MS to monitor for substrate metabolite formation. The enzyme activity in the presence of the compounds were normalized with the enzyme activity in the absence of the compounds and expressed as a percentage of activity. The inhibitory potential (IC50) of the compounds were determined using nonlinear regression of percentage of activity versus compound concentration.

CYP2C19 [6] = target: T3, CYP2C19
[7] = test system: CBD metabolism in human liver microsomes; assay: Example 1: inhibition of CBD metabolism in pooled human liver microsomes; settings: for Inhibition of CBD metabolism (in words): human liver microsomes; for IC50: read-out: HLM CYP inhibition IC50, substrate CBD, pooled HLM 0.1 mg/mL, CBD 1.64 μM, 15 minutes, n = 1
[8] = test system: Maximum Electroconvulsive Shock (MES) model; settings: MES model in mouse; cited from earlier work

T3 sequence (P33261 whole entry): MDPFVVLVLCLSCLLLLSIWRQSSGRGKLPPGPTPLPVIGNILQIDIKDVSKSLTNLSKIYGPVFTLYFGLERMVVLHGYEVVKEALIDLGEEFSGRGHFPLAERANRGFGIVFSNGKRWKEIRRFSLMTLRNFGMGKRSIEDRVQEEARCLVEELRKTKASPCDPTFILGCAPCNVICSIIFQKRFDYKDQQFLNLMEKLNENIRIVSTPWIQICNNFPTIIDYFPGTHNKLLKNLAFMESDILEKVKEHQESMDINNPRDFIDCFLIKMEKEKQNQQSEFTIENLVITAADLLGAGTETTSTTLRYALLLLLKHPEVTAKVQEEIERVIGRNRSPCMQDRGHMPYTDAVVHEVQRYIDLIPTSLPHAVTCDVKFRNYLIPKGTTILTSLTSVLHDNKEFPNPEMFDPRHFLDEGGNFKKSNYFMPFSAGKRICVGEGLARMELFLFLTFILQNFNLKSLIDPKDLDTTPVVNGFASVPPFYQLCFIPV
Chain of CYP2D6 (P10635 whole entry): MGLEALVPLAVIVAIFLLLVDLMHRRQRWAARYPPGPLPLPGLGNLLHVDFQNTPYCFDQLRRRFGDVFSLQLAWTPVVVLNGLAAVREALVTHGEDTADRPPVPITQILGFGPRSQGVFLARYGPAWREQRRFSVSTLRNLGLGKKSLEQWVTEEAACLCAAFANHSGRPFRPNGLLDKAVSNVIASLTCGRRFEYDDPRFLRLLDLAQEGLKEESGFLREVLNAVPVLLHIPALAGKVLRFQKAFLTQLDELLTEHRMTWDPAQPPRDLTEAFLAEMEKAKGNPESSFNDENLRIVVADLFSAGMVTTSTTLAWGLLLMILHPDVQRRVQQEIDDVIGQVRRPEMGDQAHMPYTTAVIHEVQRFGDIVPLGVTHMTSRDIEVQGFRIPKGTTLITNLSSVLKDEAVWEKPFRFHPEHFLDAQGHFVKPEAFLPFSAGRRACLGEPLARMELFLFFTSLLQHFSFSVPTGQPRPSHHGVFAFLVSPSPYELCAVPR

## C=C(C)[C@@H]1CCC(C)=C[C@H]1c1c(O)cc(CCCCC)cc1O [CBD, cannabidiol]
[1]; after 1500 mg CBD dose
  Share of the total drug material measured in systemic circulation: 2%
[1]; single dose 200 mg
  CBD AUC: 499 ng·h/mL
[1]; single dose 750 mg
  CBD AUC: 1070 ng·h/mL
[1]; single dose 1500 mg
  CBD AUC: 1444 ng·h/mL
[1]; single dose 3000 mg
  CBD AUC: 2669 ng·h/mL
[1]; single dose 4500 mg
  CBD AUC: 3215 ng·h/mL
[1]; single dose 6000 mg
  CBD AUC: 3696 ng·h/mL
[2]
  Log P (partition coefficient): 6.1
[3]; 200 mg
  bioavailability: 100%
[3]; 750 mg
  bioavailability: 57%
[3]; 1500 mg
  bioavailability: 39%
[3]; 3000 mg
  bioavailability: 36%
[3]; 4500 mg
  bioavailability: 29%
[3]; 6000 mg
  bioavailability: 25%

## COc1ccc2[nH]c([S+]([O-])Cc3ncc(C)c(OC)c3C)nc2c1 (stereo not drawn) [Omeprazole]
[4]
  IC50 at 15 min: > 33 µM

## CC(C)c1nc(CN(C)C(=O)N[C@@H](CCN2CCOCC2)C(=O)N[C@H](CC[C@H](Cc2ccccc2)NC(=O)OCc2cncs2)Cc2ccccc2)cs1 [Cobicistat]
CYP1A2
  IC50: > 25 µM
CYP2C8
  IC50: > 25 µM
CYP2C19 [5]
  IC50: > 25 µM
CYP2D6
  IC50: 0.479 µM
CYP2C19 [6]
  IC50: 0.331 µM
[7]
  Inhibition of CBD metabolism (in words): strong inhibitor of CBD metabolism

## Cc1c(OCC(F)(F)F)ccnc1C[S+]([O-])c1nc2ccccc2[nH]1 (stereo not drawn) [Lansoprazole]
[4]
  IC50 at 15 min: 20 µM
[7]
  Inhibition of CBD metabolism (in words): effective inhibitors of CBD metabolism

## C/C(=C\COc1c2ccoc2cc2oc(=O)ccc12)CCC(O)C(C)(C)O (stereo not drawn) [6,7-dihydroxybergamottin]
[7]
  Inhibition of CBD metabolism (in words): effective inhibitors of CBD metabolism
  IC50: 23.3 µM

## COc1ccc2[nH]c(S(=O)(=O)Cc3ncc(C)c(OC)c3C)nc2c1 [Omeprazole Sulphone]
[7]
  IC50: > 33 µM

## C=C(C)[C@@H]1CCC(CO)=C[C@H]1c1c(O)cc(CCCCC)cc1O [7-OH-CBD]
[8]
  Anticonvulsant effect: anticonvulsant effect similar to CBD

## C=C(C)[C@@H]1CCC(C(=O)O)=C[C@H]1c1c(O)cc(CCCCC)cc1O [7-COOH-CBD]
[1]; after 1500 mg CBD dose
  Concentration of metabolite relative to CBD: 47 fold
  Share of the total drug material measured in systemic circulation: 97%
[8]
  Anticonvulsant effect: inactive

## CNCCC(Oc1ccc(C(F)(F)F)cc1)c1ccccc1 (stereo not drawn) [Fluoxetine]
[4]
  IC50 at 15 min: > 33 µM
[7]
  Inhibition of CBD metabolism (in words): unable to inhibit metabolism of CBD

## CC(C)=CCC/C(C)=C/COc1c2ccoc2cc2oc(=O)ccc12 [Bergamottin]
[4]
  IC50 at 15 min: > 33 µM
